Assay in all cases: ≥ marks a high value that may be exact or a test limit, other limits are often not marked, values filed in µg/mL are converted to µM
Assay [1] relates to Candida albicans ATCC 90028.
Assay [2] concerns Escherichia coli ATCC 25922.
Assay [3] deals with Staphylococcus aureus NCTC 8325.
Assay [4] relates to Escherichia coli ATCC 25726.
The test system of assay [5] is Staphylococcus aureus ATCC 25923.
The test system of assay [6] is Staphylococcus aureus ATCC 2592.
Assay [7] deals with Bacillus subtilis ATCC 6633.
The subject of assay [8] is Acinetobacter baumannii.

≈ marks a conversion by molar mass, not a printed value. Where “and” joins values, the source holds several entries; their conditions need not be identical. Equal entries are not always repeated.

Broadly, the MIC is the lowest concentration that inhibits growth of the organism. Take `CC[C@H](C)[C@H](NC(=O)[C@H](C)NC(=O)[C@@H]1CCCN1C(=O)[C@H](CC(C)C)NC(=O)[C@@H](N)Cc1ccccc1)C(=O)N[C@@H](C)C(=O)NCC(=O)N[C@@H](CCSC)C(=O)N[C@@H](C)C(=O)N[C@@H](C)C(=O)N[C@@H](CCCCN)C(=O)N[C@@H](Cc1ccccc1)C(=O)N[C@@H](CC(C)C)C(=O)N1CCC[C@H]1C(=O)N[C@@H](CCCCN)C(=O)N[C@H](C(=O)N[C@@H](Cc1ccccc1)C(=O)N[C@H]1CSSC[C@@H](C(=O)O)NC(=O)[C@H](CCCCN)NC(=O)[C@H](CCCCN)NC(=O)[C@H](CO)NC(=O)[C@H]([C@@H](C)CC)NC(=O)[C@H](C)NC1=O)[C@@H](C)CC` [FLPAIAGMAAKFLPKIFCAISKKC]: the MIC in assay [1] was determined as 10 µM (≈ 25.7 µg/mL); in assay [2], 3 µM (≈ 7.7 µg/mL); in assay [3], 1 µM (≈ 2.57 µg/mL).
Turning to `CC[C@H](C)[C@H](NC(=O)CN)C(=O)N[C@@H](CC(C)C)C(=O)N[C@@H](CC(=O)O)C(=O)N[C@H](C(=O)N[C@H](C(=O)N[C@@H](CCCCN)C(=O)N[C@@H](CC(N)=O)C(=O)N[C@@H](C)C(=O)N[C@@H](C)C(=O)N[C@@H](CCCCN)C(=O)N[C@H](C(=O)N[C@H](C(=O)N[C@@H](C)C(=O)N[C@H](C(=O)NCC(=O)N[C@@H](CC(C)C)C(=O)N[C@@H](CC(C)C)C(=O)N[C@@H](CCC(=O)O)C(=O)N[C@@H](CCCCN)C(=O)N[C@H](C(=O)N[C@@H](CCCCN)C(=O)N[C@H]1CSSC[C@@H](C(=O)O)NC(=O)CNC(=O)[C@H]([C@@H](C)O)NC(=O)[C@H](CCSC)NC(=O)[C@H](CCCCN)NC1=O)[C@@H](C)CC)C(C)C)C(C)C)[C@@H](C)O)[C@@H](C)CC)[C@@H](C)O` [GILDTIKNAAKTVAVGLLEKIKCKMTGC], the MIC in assay [1] is not below 150 µM; in assay [2] it was 17 µM (≈ 49.6 µg/mL); in assay [3] it was not below 70 µM.
`CC[C@H](C)[C@H](NC(=O)[C@H](C)NC(=O)[C@H](CC(C)C)NC(=O)[C@H](CC(N)=O)NC(=O)[C@H](CCCCN)NC(=O)[C@H](CC(C)C)NC(=O)[C@H](CO)NC(=O)[C@H](CC(=O)O)NC(=O)[C@H](CC(C)C)NC(=O)[C@H](CC(C)C)NC(=O)CN)C(=O)N[C@@H](CC(N)=O)C(=O)N[C@@H](C)C(=O)N[C@@H](C)C(=O)N[C@@H](CCCCN)C(=O)NCC(=O)N[C@@H](C)C(=O)NCC(=O)N[C@@H](CCC(N)=O)C(=O)N[C@@H](CO)C(=O)N[C@H](C(=O)N[C@@H](CC(C)C)C(=O)N[C@@H](CC(N)=O)C(=O)N[C@H](C(=O)N[C@@H](CC(C)C)C(=O)N[C@@H](CO)C(=O)N[C@H]1CSSC[C@@H](C(=O)O)NC(=O)[C@H]([C@@H](C)O)NC(=O)[C@H](CCCCN)NC(=O)[C@H](CO)NC(=O)[C@H](CC(C)C)NC(=O)[C@H](CCCCN)NC1=O)[C@@H](C)O)C(C)C` [GLLDSLKNLAINAAKGAGQSVLNTLSCKLSKTC]: the MIC is not below 37.5 µM in assay [4] and 18.8 µM (≈ 62.5 µg/mL) in assay [5].
Turning to `CC[C@H](C)[C@H](N)C(=O)N[C@@H](CC(C)C)C(=O)N1CCC[C@H]1C(=O)N[C@H](C(=O)N[C@@H](CC(C)C)C(=O)NCC(=O)N[C@@H](CC(N)=O)C(=O)N[C@@H](CC(C)C)C(=O)N[C@@H](CC(C)C)C(=O)N[C@@H](CC(N)=O)C(=O)N[C@@H](CO)C(=O)N[C@@H](CC(C)C)C(=O)N[C@@H](CC(C)C)C(N)=O)[C@@H](C)CC` [ILPILGNLLNSLL], the MIC is not below 100 µM in assay [1], more than 100 µM in assay [2] and not below 100 µM in assay [3].
Turning to `CC[C@H](C)[C@H](N)C(=O)N[C@H](C(=O)N[C@H](C(=O)N1CCC[C@H]1C(=O)N1CCC[C@H]1C(=O)N[C@H](C(=O)N[C@H](C(=O)N[C@@H](CCCCN)C(=O)N[C@@H](CC(=O)O)C(=O)N[C@H](C(=O)N[C@@H](CC(C)C)C(=O)N[C@@H](CCCCN)C(=O)N[C@@H](CCCCN)C(=O)N[C@@H](Cc1ccccc1)C(=O)N[C@@H](Cc1ccccc1)C(=O)N[C@@H](CCCCN)C(=O)NCC(=O)NCC(=O)N[C@H](C(=O)N[C@@H](C)C(=O)NCC(=O)N[C@H](C(=O)N[C@@H](CCSC)C(=O)NCC(=O)N[C@@H](CCC(N)=O)C(=O)O)C(C)C)[C@@H](C)CC)[C@@H](C)O)C(C)C)[C@@H](C)CC)[C@@H](C)CC)[C@@H](C)O` [ITIPPIVKDTLKKFFKGGIAGVMGQ], the MIC in assay [4] was not below 40 µM; in assay [5], 40 µM (≈ 106 µg/mL).
On to `CSCC[C@H](NC(=O)[C@H](CCSC)NC(=O)[C@H](CCCCN)NC(=O)CNC(=O)[C@@H](NC(=O)[C@@H](NC(=O)[C@H](CCCCN)NC(=O)[C@H](CC(C)C)NC(=O)CNC(=O)[C@H](Cc1ccccc1)NC(=O)[C@H](CCCCN)NC(=O)[C@H](Cc1ccccc1)NC(=O)[C@H](C)NC(=O)[C@H](CCCCN)NC(=O)CNC(=O)[C@H](CC(C)C)NC(=O)[C@H](CC(C)C)NC(=O)[C@H](CO)NC(=O)CNC(=O)[C@H](CC(C)C)NC(=O)CN)[C@@H](C)O)C(C)C)C(=O)N[C@@H](C)C(=O)NCC(=O)N[C@@H](C)C(=O)N1CCC[C@H]1C(=O)N[C@@H](CCCN=C(N)N)C(=O)N[C@@H](CCC(=O)O)C(=O)N[C@@H](CCC(N)=O)C(=O)O` [GLGSLLGKAFKFGLKTVGKMMAGAPREQ], for which the minimal inhibitory concentration (MIC) is 25 µM (≈ 72.3 µg/mL) in assay [1], 12.5 µM (≈ 36.2 µg/mL) in assay [4] and 6 µM (≈ 17.4 µg/mL) in assay [5].
`CC[C@H](C)[C@H](NC(=O)[C@@H](NC(=O)[C@@H](N)Cc1ccccc1)[C@@H](C)CC)C(=O)N[C@H](C(=O)NCC(=O)N[C@@H](CC(C)C)C(=O)N[C@H](C(=O)N[C@@H](CCCN=C(N)N)C(=O)NCC(=O)N[C@@H](CC(C)C)C(=O)N[C@H](C(=O)N[C@@H](CCCCN)C(=O)N[C@@H](CC(C)C)C(=O)N[C@@H](Cc1ccccc1)C(N)=O)[C@@H](C)O)C(C)C)[C@@H](C)O` [FIITGLVRGLTKLF]: the results for the MIC in assay [6] and in assay [7] were 7.92 µM (≈ 12.5 µg/mL) and 15.8 µM (≈ 25 µg/mL), respectively.
Turning to `CC[C@H](C)[C@H](NC(=O)CN)C(=O)N[C@@H](Cc1c[nH]c2ccccc12)C(=O)N[C@@H](CCCCN)C(=O)N[C@H](C(=O)N[C@H](C(=O)N[C@@H](CCCCN)C(=O)N[C@@H](CO)C(=O)N[C@@H](CCSC)C(=O)NCC(=O)N[C@@H](CCCCN)C(=O)N[C@H](C(=O)N[C@@H](Cc1ccccc1)C(=O)N[C@@H](C)C(=O)NCC(=O)N[C@@H](C)C(=O)N[C@H](C(=O)N[C@@H](CC(C)C)C(=O)N[C@@H](CCC(N)=O)C(=O)N[C@@H](CC(N)=O)C(=O)N[C@@H](CC(C)C)C(N)=O)[C@@H](C)CC)C(C)C)[C@@H](C)CC)[C@@H](C)O` [GIWKTIKSMGKVFAGAILQNL], the MIC in assay [1] was 12.5 µM (≈ 28.4 µg/mL); in assay [8], 12.5 µM (≈ 28.4 µg/mL); in assay [4], 12.5 µM (≈ 28.4 µg/mL); in assay [5], 6.25 µM (≈ 14.2 µg/mL).
With `CC[C@H](C)[C@H](NC(=O)CNC(=O)[C@H](CCC(N)=O)NC(=O)[C@H](Cc1ccccc1)NC(=O)[C@@H](NC(=O)[C@H](CCCCN)NC(=O)[C@H](CCCCN)NC(=O)[C@H](CC(C)C)NC(=O)[C@H](C)NC(=O)[C@H](CC(N)=O)NC(=O)[C@H](CC(C)C)NC(=O)CN)C(C)C)C(=O)N[C@@H](Cc1cnc[nH]1)C(=O)N[C@@H](CCCCN)C(=O)N[C@@H](C)C(=O)N[C@H](C(=O)N[C@@H](CCCCN)C(=O)N[C@@H](CC(C)C)C(=O)N[C@H](C(=O)N[C@@H](CC(N)=O)C(=O)N[C@@H](CC(N)=O)C(=O)N[C@@H](Cc1cnc[nH]1)C(=O)N[C@H](C(=O)N[C@@H](CCC(N)=O)C(=O)O)C(C)C)[C@@H](C)CC)[C@@H](C)CC` [GLNALKKVFQGIHKAIKLINNHVQ], the MIC in assay [2] is 20 µM (≈ 53.7 µg/mL); in assay [3], not below 40 µM.
For `CC[C@H](C)[C@H](NC(=O)CN)C(=O)NCC(=O)N[C@@H](CCCN=C(N)N)C(=O)N[C@@H](CCCCN)C(=O)N[C@@H](Cc1ccccc1)C(=O)N[C@@H](CC(C)C)C(=O)NCC(=O)NCC(=O)N[C@H](C(=O)N[C@@H](CCCCN)C(=O)N[C@H](C(=O)N[C@H](C(=O)N[C@@H](Cc1ccccc1)C(=O)N[C@@H](CCCN=C(N)N)C(=O)NCC(=O)NCC(=O)N[C@H](C(=O)N[C@@H](CCCCN)C(=O)N[C@@H](CC(=O)O)C(=O)N[C@@H](Cc1ccccc1)C(=O)N[C@@H](C)C(=O)N[C@@H](CO)C(=O)N[C@@H](CCCCN)C(=O)N[C@@H](Cc1cnc[nH]1)C(=O)N[C@@H](CC(C)C)C(=O)N[C@@H](Cc1ccc(O)cc1)C(N)=O)C(C)C)[C@@H](C)O)[C@@H](C)O)C(C)C` [GIGRKFLGGVKTTFRGGVKDFASKHLY], the MIC in assay [6] was not below 75 µM; in assay [2] it was 150 µM and 100 µM.
Consider `CC[C@H](C)[C@H](NC(=O)CNC(=O)[C@H](CCCCN)NC(=O)[C@H](Cc1ccccc1)NC(=O)[C@@H](NC(=O)[C@H](CCCCN)NC(=O)[C@H](CCCCN)NC(=O)[C@H](CC(C)C)NC(=O)[C@H](C)NC(=O)[C@H](CC(N)=O)NC(=O)[C@H](CC(C)C)NC(=O)CN)C(C)C)C(=O)N[C@@H](Cc1cnc[nH]1)C(=O)N[C@@H](CCC(=O)O)C(=O)N[C@@H](C)C(=O)N[C@H](C(=O)N[C@@H](CCCCN)C(=O)N[C@@H](CC(C)C)C(=O)N[C@H](C(=O)N[C@@H](CC(N)=O)C(=O)N[C@@H](CC(N)=O)C(=O)N[C@@H](Cc1cnc[nH]1)C(=O)N[C@H](C(=O)N[C@@H](CCC(N)=O)C(=O)O)C(C)C)[C@@H](C)CC)[C@@H](C)CC` [GLNALKKVFKGIHEAIKLINNHVQ], for which the MIC in assay [2] was 20 µM (≈ 53.7 µg/mL); in assay [3], not below 80 µM.
